Results on two compounds are retold here after US20050288213A1, “Combination therapy for the treatment of obesity” (priority 2002, published 2005).

Structures are written as SMILES. “Also recorded” adds a separate entry of the source.

For test [1], the system named is diet induced obese (DIO) mice. The experiment in a line: In vivo study of a combination of a NPY5 antagonist and food restriction. Also noted: species or system Male C57BL/6J mice. Here is the method:
Male C57BL/6J mice (CLEA Japan Inc., 14 months old at the beginning of the drug administration) were used. Mice were given water and a regular pellet chow (CE-2, CLEA Japan Inc.) ad libitum. They were kept in an animal room which was maintained at 23±2° C. temperature, 55±15% relative humidity and on a 12-hr light-dark cycle (7:00-19:00) during a quarantine and acclimatization period of 1 week. Before the start of drug administration, mice were fed a MHF diet (Oriental BioService Co., Tokyo, Japan) for about 9 to 10 months until the body weight gain reached a plateau. After the body weight gain reached a plateau, the diet was changed to a powder MHF diet. The powder MHF diet was given by powder feeder (small dishes). Diet and dishes were changed everyday, and the daily food intake was measured. During this period, animals were orally administered vehicle (0.5% methylcellulose in distilled water) by gavage twice-daily. After stable feeding was observed, the amount of new food was adjusted to daily food intake+0.3 g, to minimize the amount of spilled food. After the acclimation period, the […] mice were divided into four groups to match the average values of body weight (initial average body weight was 49 to 51 g) and food intake (n=7-10). Two of the groups were orally administered either vehicle or compound B at a dose of 30 mg/kg twice-daily for 1.5 months by gavage, respectively. Another two groups were treated with vehicle or compound B and given 90% of the average baseline food intake of the each mouse during the acclimation period (10% food restriction). The administration was done one and half hours before the beginning of the dark period following body weight measurement and one and half hours after the beginning of the light period. The amount of food was divided into two meals and given around at 8:00 and 18:00 to avoid a long duration of fasting. Food and body weight were measured.

Test [2] concerns diet induced obese (DIO) mice. In words: In vivo pair-feeding study with a NPY5 antagonist. The arrangement: species or system Male C57BL/6J mice. On the procedure:
Compound A, is an orally active, selective NPY5 antagonist (Kanatani et al., 2000, Biochem. Biophys. Research Comm. 272:169-173). Male C57BL/6J mice (CLEA Japan Inc., 16 months old at the beginning of the drug administration) were used. Mice were given water and regular pellet chow (CE-2, CLEA Japan Inc.) ad libitum. They were kept in an animal room which was maintained at 23±2° C. temperature, 55±15% relative humidity and on a 12-hr light-dark cycle (7:00-19:00) during a quarantine and acclimatization period of 1 week.
Before the start of drug administration, mice were fed a MB diet (Oriental BioService Co., Tokyo, Japan) for about 9 to 10 months until the body weight gain reached plateau. After the body weight gain reached a plateau, the diet was change to a powder MHF diet. The powder MEW diet was given by powder feeder (small dishes). Diet and dishes were changed everyday, and daily food intake was measured. During this period, animals were orally administered vehicle (0.5% methylcellulose in distilled water) by gavage once-daily. After stable feeding was observed, the amount of new food was adjusted to daily food intake+0.3 g, to minimize the amount of spilled food. After the acclimation period, the MB diet-fed mice were divided into three groups to match average values of body weight (initial average body weight was 48 to 49 g). Each group was orally administered either vehicle or compound A at a dose of 100 mg/kg once-daily for 1 month, or vehicle by gavage. Food and body weight were measured. The administration was done one and half hours before the beginning of the dark period following the body weight measurement. Four days after drug administration, the pair-feeding was started. The pair-fed amount of food was calculated from the following equations: Average F.I. inhibition of drug treated group (%)=(average F.I. from control group−average F.I. from drug treated group)/average F.I. from control group×100 Pair fed amount of food for each animal=each animal's average F.I. from pre period×(1−average F.I. inhibition of drug treated group (%)) Pair fed mice were given a diet calculated from above inhibition and pre-average F.I. value. The amount of food was divided to two meals and given around at 8:00 and 18:00 to avoid a long duration of fasting. Rectal temperature was measured at 13:00-14:00 by insertion of thermo-probe in the rectum, at the 14, 22, 29, 34th day (10, 18, 25, 30th day for pair-fed group) after the start of treatment. Results

As to `O=C1OC2(CCN(C(=O)Nc3cnc(-c4ccccc4)cn3)CC2)c2ccccc21` [Compound B, 3-oxo-N-(5-phenyl-2-pyrazinyl)-spiro[isobenzofuran-1(3H),4′-piperidine]-1′-carboxamide], in test [1] (30 mg/kg twice-daily P.O. plus 10% food restriction, compared with either treatment alone, 30 mg/kg), the “body weight, combination with 10% food restriction” value is given as “decreased weight than either treatment alone; also recorded: lose more weight than food restriction alone”. In test [1] (30 mg/kg twice-daily P.O., throughout the treatment period), the food intake result is listed as “mildly reduced food intake”. The inhibition at 30 mg/kg in test [1] (Mus musculus, po, 30 mg/kg twice-daily P.O., 1.5 months, read-out: Inhibitory percentage of cumulative food intake) was 6%. The body weight result in test [1] (non food restricted, 30 mg/kg twice-daily P.O., 49 day treatment) is recorded as “significantly reduced body weight”.
Take `CC1(C)CC(=O)C(C2C3=C(CC(C)(C)CC3=O)Oc3ccccc32)C(=O)C1` (stereo not drawn) [Compound A]: the “food consumed, less than untreated controls” value in test [2] (DIO mice chronically treated) is “about 10%”. Also, the body weight result in test [2] (DIO mice, 100 mg/kg once-daily P.O., 30 day treatment) is reported as “significantly reduced body weight”. In addition, the food intake entry in test [2] (DIO mice, 100 mg/kg once-daily P.O., throughout the treatment period) was “mildly reduced food intake”. In test [2] (DIO mice, 100 mg/kg once-daily P.O., compared with control and pair-fed group, 100 mg/kg), the rectal temperature result was “almost the same as that in the control group; also recorded: drop in body temperature was prevented”. Moreover, the inhibition at 100 mg/kg in test [2] (Mus musculus, po, DIO mice, 100 mg/kg once-daily P.O., 1 month, read-out: Inhibitory percentage of cumulative food intake) was 12.5%.
